{"source": "patent US20130022974A1", "about": "“DNA METHYLATION PROFILES IN CANCER” (THE REGENTS OF THE UNIVERSITY OF MICHIGAN, priority 2011, published 2013)", "key": {"[1]": {"test_system": "LNCaP cells", "assay": "Quantitative real time PCR of transcript variants in 5-Aza treated LNCaP cells", "format": "cell-based, human", "conditions": "5-Aza treatment vs DMSO", "procedure": "Total RNA was isolated from cells using RNeasy mini kit (Qiagen, Valencia, Calif.) according to manufacturer's instructions. A DNAseI treatment step was included during the total RNA isolation procedure to remove genomic DNA from the samples. One microgram of total RNA was used in cDNA synthesis using Superscript III reverse transcriptase (Invitrogen, Carlsbad, Calif.). Quantitative real time PCR (QPCR) was performed on prostate cell line cDNA samples using SYBR Green Mastermix (Applied Biosystems) on an Applied Biosystems 7900 Real Time PCR system as described (Tomlins et al. 2007, Nat Genet 39: 41-51). GAPDH primers sequences were as described (Vandesompele et al. 2002, Genome Biol 3: RESEARCH0034). The amount of target transcript and GAPDH in each sample was normalized by standard ddCt methodology, and then to the reference PrEC or DMSO-treated LNCaP samples accordingly.\n(§1) For 5-Aza stimulation experiments, LNCaP cells cultured in RPMI 1640 were treated with vehicle, dimethyl sulfoxide (DMSO) or 6 μM 5-Aza for 4 or 6 days in duplicates. Total RNA was isolated with Trizol (Life Technologies, Carlsbad, Calif.) and further purified using RNAeasy Micro Kit (Qiagen, Valencia, Calif.) according to the manufacturer's instructions. Expression profiling was performed using the Agilent 44K expression array. One microgram of total RNA was converted to cRNA and then labeled according to the manufacturer's protocol (Agilent). Hybridizations were performed for 16 h at 65° C. Scanned images from Agilent microarray scanner were analyzed and extracted using Agilent Feature Extraction Software 9.1.3.1 with linear and lowess normalization performed for each array. A total of 4 hybridizations were performed including two 4 day and two 6 day 5-Aza treated samples (Cy5) against control DMSO-treated samples (Cy3). The accession number for gene expression dataset in the GEO database is GSE27619."}, "[2]": {"test_system": "LNCaP cells", "assay": "Expression profiling of 5-Aza treated LNCaP cells (Agilent 44K array, one-class SAM)", "format": "cell-based, human", "conditions": "6 μM 5-Aza for 4 or 6 days vs DMSO, 5% false discovery rate, number of methylated genes on the array", "procedure": "Significance analysis of microarray (SAM) (Tusher et al. Proc Natl Acad Sci USA 98: 5116-5121 2001) was performed on the gene expression dataset obtained from 5-Aza and DMSO-treated LNCaP cells by selecting genes that were methylated in LNCaP. From 1,171 methylated genes from LNCaP M-NGS (Table 1), a total of 973 genes were mapped to Agilent expression profiling data. One-class SAM analysis was done using default settings and significant genes were calculated with a false discovery rate (FDR) of 0.05.\nas §1, with “A total of 4 hybridizations were performed including two 4 day and two 6 day 5-Aza treated samples (Cy5) against control DMSO-treated samples (Cy3). The accession number for gene expression dataset in the GEO database is GSE27619.” left out"}}, "note": "Entries after “also recorded” stand apart in the source; their conditions may differ."}
{"molecule": "Nc1ncn([C@H]2C[C@H](O)[C@@H](CO)O2)c(=O)n1", "note": "[5-Aza, 5-Aza-2′-deoxycytidine]", "values": [{"measurement": "re-expression of CpG-methylated APC variant-2 and -3", "setting": "[1]", "value": "preferentially re-expressed; also recorded: re-expression"}, {"measurement": "re-expression of CpG-methylated NDRG2 variants 1-4", "setting": "[1]", "value": "preferentially re-expressed; also recorded: re-expression"}, {"measurement": "re-expression of CpG-methylated RASSF1 variant-1 transcript", "setting": "[1]", "value": "preferential re-expression"}, {"measurement": "upregulation of LNCaP methylated genes (SAM)", "setting": "[2]", "value": "246 out of 973"}]}
